As a reminder, the melting point is the temperature, or range, at which the solid turns liquid.

The structures appear in SMILES notation. Bounds are passed on as bounds.

As for `CCCC1=C([N+](=O)[O-])C(c2ccccc2Cl)c2c[nH]nc2N1` (centres unmarked) [Example 93, 4-(2-Chlorophenyl)-4,7-dihydro-5-nitro-6-propyl-2H-pyrazolo[3,4-b]pyridine], the melting point turned out to be 228 °C.

With `COC(=O)C1=C(C)Nc2n[nH]cc2C1c1ccccc1Cl` (centres unmarked) [Example 4, Methyl 4-(2-chlorophenyl)-4,7-dihydro-6-methyl-2H-pyrazolo[3,4-b]pyridine-5-carboxylate], the melting point turned out to be 235 °C.

`CCCOc1ccccc1C1C(C(=O)OCC)=C(CCC)Nc2n[nH]cc21` (centres unmarked) [Example 34, Ethyl 4,7-dihydro-4-(2-propoxyphenyl)-6-propyl-2H-pyrazolo[3,4-b]pyridine-5-carboxylate] gave a melting point of 205 °C.

For the compound `N#CC1=C(c2ccc3ccccc3c2)Nc2n[nH]cc2C1c1cccc2nonc12` (centres unmarked) [Example 172, 4-(2,1,3-Benzoxadiazol-4-yl)-5-cyano-4,7-dihydro-6-(naphthalen-2-yl)-2H-pyrazolo[3,4-b]pyridine], the melting point was 228 °C.

In turn, `CCCC1=C(C(=O)OCC)C(c2ccccc2[N+](=O)[O-])c2c[nH]nc2N1` (centres unmarked) [Example 41, Ethyl 4,7-dihydro-4-(2-nitrophenyl)-6-propyl-2H-pyrazolo[3,4-b]pyridine-5-carboxylate] showed a melting point of 218 °C.

As for `CC(=O)N1CCC(C2=C(C#N)C(c3cccc(C#N)c3Br)c3c[nH]nc3N2)CC1` (centres unmarked) [Example 1051, 6-(1-Acetylpiperidin-4-yl)-4-(2-bromo-3-cyanophenyl)-5-cyano-4,7-dihydro-2H-pyrazolo[3,4-b]pyridine], the melting point was > 280 °C.

On to `N#CC1=C(c2cccs2)Nc2n[nH]cc2C1c1ccccc1Cl` (centres unmarked) [Example 241, 4-(2-Chlorophenyl)-5-cyano-4,7-dihydro-6-(thiophen-2-yl)-2H-pyrazolo[3,4-b]pyridine], for which the melting point worked out at 174 °C.

As to `CCCC1=C(C#N)C(c2ccccc2Cl)c2c(n[nH]c2C(C)C)N1` (centres unmarked) [Example 315, 4-(2-Chlorophenyl)-5-cyano-4,7-dihydro-6-propyl-3-isopropyl-2H-pyrazolo[3,4-b]pyridine], the melting point was > 270 °C.

`CCCC1=C(C(=O)OCC)C(c2cccc(C)c2Cl)c2c[nH]nc2N1` (centres unmarked) [Example 178, Ethyl 4-(2-chloro-3-methylphenyl)-4,7-dihydro-6-propyl-2H-pyrazolo[3,4-b]pyridine-5-carboxylate] showed a melting point of 198 to 200 °C.

With `C=CCCC(=O)n1ncc2c1NC(CCC)=C(C#N)C2c1ccccc1Cl` (centres unmarked) [Example 357, 4-(2-Chlorophenyl)-5-cyano-4,7-dihydro-1-(4-pentenoyl)-6-propyl-1H-pyrazolo[3,4-b]pyridine], the melting point amounted to 140 °C.

`N#CC1=C(C2CCCC2)Nc2n[nH]cc2C1c1ccccc1Cl` (centres unmarked) [Example 316, 4-(2-Chlorophenyl)-5-cyano-6-cyclopentyl-4,7-dihydro-2H-pyrazolo[3,4-b]pyridine]: the melting point was found to be 225 °C.

For `CCOC(=O)C1=C(C(F)(F)F)Nc2n[nH]c(C)c2C1c1ccccc1Cl` (centres unmarked) [Example 21, Ethyl 4-(2-chlorophenyl)-4,7-dihydro-3-methyl-6-trifluoromethyl-2H-pyrazolo[3,4-b]pyridine-5-carboxylate], the melting point was 165 to 168 °C.

As to `CCCC1=C(C(=O)OCC)C(c2cccc3c2OCCC3)c2c[nH]nc2N1` (single isomer, unassigned; (-)) [Example 188, (−)Ethyl 4-(3,4-dihydro-2H-benzopyran-8-yl)-4,7-dihydro-6-propyl-2H-pyrazolo[3,4-b]pyridine-5-carboxylate], the melting point fell in the range of 160 to 161 °C.

The compound `CCCC1=C(C(=O)OCC)C(c2ccccc2)c2c[nH]nc2N1.O=C(O)/C=C\C(=O)O` (centres unmarked) [Example 25, Ethyl 4,7-dihydro-4-phenyl-6-propyl-2H-pyrazolo[3,4-b]pyridine-5-carboxylate maleate] displayed a melting point of 139 to 141 °C.

For the origin of these results see patent US6977262B2, “Dihydropyrazolopyridine compounds and pharmaceutical use thereof” (Mitsubishi Pharma Corporation, priority 2001, dated 2005).
